The source of these data is patent US20250296971A1, “GASTRIC INHIBITORY PEPTIDE RECEPTOR LIGANDS” (priority 2021, published 2025).

Each structure is given as a SMILES string. *1 amine or outer side, *2 acyl side, *3 side chain or, on linkers, in order; H or OH if unused. Where a SMILES comes first, the peptide text is derived from it. Bridges are numbered along the chain shown (N, C = ends). [ ]: non-standard residue; d: D form. The star is where a group is joined. X5 = NC(=O)[C@H](CCCCNC(=O)CN1CCN(CC(=O)O)CCN(CC(=O)O)CCN(CC(=O)O)CC1)NC(=O)CCC(=O)NCCCOCCOCCOCCCN*; NH(CH2)5NHDOTA = O=C(O)CN1CCN(CC(=O)O)CCN(CC(=O)NCCCCCN*)CCN(CC(=O)O)CC1; X3 = O=C(O)CN1CCN(CC(=O)O)CCN(CC(=O)NCCCOCCOCCOCCCN*)CCN(CC(=O)O)CC1; X8 = O=C(O)CN1CCN(CC(=O)O)CCN(CC(=O)N2CCN(*)CC2)CCN(CC(=O)O)CC1; DOTA = O=C(O)CN1CCN(CC(=O)O)CCN(CC(=O)*)CCN(CC(=O)O)CC1; Pro(cis-4-NHAc) = CC(=O)N[C@@H]1CN[C@H](C(=O)O)C1; Trp(5-Cl) = N[C@@H](Cc1c[nH]c2ccc(Cl)cc12)C(=O)O; Pyridine(2,6-diCH2) = c1cc(C[*:1])nc(C[*:2])c1; Pro(4R-NH2) = N[C@H]1CN[C@H](C(=O)O)C1; X6 = c1cc(CSCCN[*:2])nc(C[*:1])c1; X7 = c1cc(CSCCN[*:2])cc(C[*:1])c1; Hyp = O=C(O)[C@@H]1C[C@@H](O)CN1; X1 = O=C(CN1CCC(N[*:1])CC1)[*:2]; Suc = O=C(CCC(=O)[*:2])[*:1]; Api = NC1(C(=O)O)CCNCC1; Thp = NC1(C(=O)O)CCOCC1; Aib = CC(C)(N)C(=O)O

Assay [1] deals with T1, GIPR (CHO-K1-hGIPR cells) (Homo sapiens, UniProt P48546).
T1 construct: host or cells: CHO-K1
T1 sequence (P48546 22-466): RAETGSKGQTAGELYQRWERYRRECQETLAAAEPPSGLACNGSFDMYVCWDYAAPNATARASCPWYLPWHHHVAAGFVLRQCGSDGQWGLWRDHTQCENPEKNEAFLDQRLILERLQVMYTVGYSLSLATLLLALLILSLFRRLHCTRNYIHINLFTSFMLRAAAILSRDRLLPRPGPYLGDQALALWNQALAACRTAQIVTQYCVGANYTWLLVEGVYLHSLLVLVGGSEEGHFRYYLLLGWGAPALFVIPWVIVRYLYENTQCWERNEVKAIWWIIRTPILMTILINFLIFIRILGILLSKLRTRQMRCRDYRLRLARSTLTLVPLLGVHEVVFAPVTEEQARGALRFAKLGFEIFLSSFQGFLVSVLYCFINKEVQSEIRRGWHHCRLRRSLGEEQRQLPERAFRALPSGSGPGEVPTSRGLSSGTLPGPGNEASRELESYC
The assay can be described thus: FACS binding assay. The following applies: competition with 20 nM GIP-057, 4° C., 1 hour, read-out: pIC50 Category (converted). The method in brief: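 Read-out: flow cytometric median fluorescence intensity, APC/Cy5 channel, plotted vs peptide conc.; 4PL fit → EC50/pEC50 or IC50/pIC50. Cells: CHO-K1-hGIPR, Accutase-detached, 500.000/mL in PBS + 1% FCS. Detection: APC-streptavidin 1 μg/mL, 30 min, on ice.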

Assay [2] has as its target T2, human GIP receptor (bioGIPR) (Homo sapiens, UniProt P48546).
T2 construct: Biotinylate extracellular of the human GIP receptor (bioGIPR, Proteros biostructures GmbH, lot #02/2b); purchased Proteros biostructures GmbH lot #02/2b
T2 sequence (P48546 22-138 limits assumed): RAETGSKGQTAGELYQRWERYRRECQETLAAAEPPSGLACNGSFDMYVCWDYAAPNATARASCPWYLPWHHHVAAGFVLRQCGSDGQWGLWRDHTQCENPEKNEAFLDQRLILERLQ
The assay can be described thus: Surface plasmon resonance (SPR) based binding assay. The following applies: Single Cycle Kinetic mode, 25° C.; for t1/2 Category: SPR dissociation half-life; for Kd: SPR, 1:1 Langmuir binding model, read-out: pKD Category (converted). The method in brief:
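Binding was measured at 25 °C by single-cycle kinetics against a reference flow cell, with blank-run and drift correction, after capturing biotinylated GIPR extracellular domain to ~3500 RU. Running buffer: HBST, 0.1% DMSO. A 1:1 Langmuir model gave kinetic rates, KD, t1/2 and pKD.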
Background: Surface plasmon resonance follows binding to a sensor surface in real time, without labels.

Take `CC[C@H](C)[C@@H]1NC(=O)[C@H](CC(C)C)NC(=O)C2(CCOCC2)NC(=O)[C@@H](NC(=O)[C@@H](CC(C)C)NC(=O)[C@H](CCC(=O)O)NC(=O)[C@@H]2C[C@@H](O)CN2C(=O)[C@H](Cc2c[nH]c3ccc(Cl)cc23)NC(=O)[C@H](Cc2c[nH]c3ccccc23)NC(=O)CCC(=O)O)CSCc2cccc(n2)CSC[C@@H](C(=O)NCCCOCCOCCOCCCNC(=O)CCC(=O)N[C@@H](CCCCNC(=O)CN2CCN(CC(=O)O)CCN(CC(=O)O)CCN(CC(=O)O)CC2)C(N)=O)NC1=O` [GIP-108, HO-Succinyl-Trp-5Clw-Hyp-Glu-leu-[Cys(2Lut)-Thp-Leu-Ile-Cys]-Ttds-Lys(DOTA)-NH2] (Suc-W[Trp(5-Cl)][Hyp]E[dL]C[Thp]LIC-X5; linker 6-10 via Pyridine(2,6-diCH2)): the IC50 in assay [1] is less than 10 nM. In addition, in assay [2], the “t1/2 Category” value is reported as “A (t1/2 values>15 min)” and the Kd was less than 1 nM.

On to `CC[C@H](C)[C@@H]1NC(=O)[C@H](CC(C)C)NC(=O)C2(CCOCC2)NC(=O)[C@@H](NC(=O)[C@@H](CC(C)C)NC(=O)[C@H](CCC(=O)O)NC(=O)[C@@H]2C[C@@H](O)CN2C(=O)[C@H](Cc2c[nH]c3ccc(Cl)cc23)NC(=O)[C@H](Cc2c[nH]c3ccccc23)NC(=O)CCC(=O)O)CSCc2cccc(n2)CSC[C@@H](C(=O)NC2CCN(CC(=O)N[C@@H](CCCCNC(=O)CN3CCN(CC(=O)O)CCN(CC(=O)O)CCN(CC(=O)O)CC3)C(N)=O)CC2)NC1=O` [GIP-109, HO-Succinyl-Trp-5Clw-Hyp-Glu-leu-[Cys(2Lut)-Thp-Leu-Ile-Cys]-APAc-Lys(DOTA)-NH2] (Suc-W[Trp(5-Cl)][Hyp]E[dL]C[Thp]LIC[X1]K(DOTA)-NH2; linker 6-10 via Pyridine(2,6-diCH2)), for which, in assay [1], the IC50 was less than 10 nM. Also, in assay [2], the “t1/2 Category” value is on record as “A (t1/2 values>15 min)” and the Kd is less than 1 nM.

As for `CC[C@H](C)[C@@H]1NC(=O)[C@H](CC(C)C)NC(=O)C2(CCN(C(=O)CN3CCN(CC(=O)O)CCN(CC(=O)O)CCN(CC(=O)O)CC3)CC2)NC(=O)[C@@H](NC(=O)[C@@H](CC(C)C)NC(=O)[C@H](CCC(=O)O)NC(=O)[C@@H]2C[C@@H](O)CN2C(=O)[C@H](Cc2c[nH]c3ccc(Cl)cc23)NC(=O)[C@H](Cc2c[nH]c3ccccc23)NC(=O)CCC(=O)O)CSCc2cccc(n2)CSCCNC1=O` [GIP-110, HO-Succinyl-Trp-5Clw-Hyp-Glu-leu-[Cys(2Lut)-Apc(DOTA)-Leu-Ile-AET]] (Suc-W[Trp(5-Cl)][Hyp]E[dL]C[Api](DOTA)LI; linker 6-C via X6), the IC50 in assay [1] is less than 10 nM. In addition, in assay [2], the “t1/2 Category” value is listed as “A (t1/2 values>15 min)” and the Kd is less than 1 nM.

For `CC[C@H](C)[C@@H]1NC(=O)[C@H](CC(C)C)NC(=O)C(C)(C)NC(=O)[C@@H](NC(=O)[C@@H](CC(C)C)NC(=O)[C@H](CCC(=O)O)NC(=O)[C@@H]2C[C@H](NC(C)=O)CN2C(=O)[C@H](Cc2c[nH]c3ccc(Cl)cc23)NC(=O)[C@H](Cc2c[nH]c3ccccc23)NC(=O)[C@H](CC(=O)O)NC(=O)CCC(=O)NCCCOCCOCCOCCCNC(=O)CN2CCN(CC(=O)O)CCN(CC(=O)O)CCN(CC(=O)O)CC2)CSCc2cccc(c2)CSCCNC1=O` [GIP-111, DOTA-Ttds-Asp-Trp-5Clw-4Ap(Ac)-Glu-leu-[Cys(3MeBn)-Aib-Leu-Ile-AET]] ({X3-Suc}-DW[Trp(5-Cl)][Pro(cis-4-NHAc)]E[dL]C[Aib]LI; linker 7-C via X7), the IC50 in assay [1] was less than 10 nM. For the same molecule, in assay [2], the “t1/2 Category” value was “A (t1/2 values>15 min)” and the Kd is 1 to 7.94 nM.

Turning to `CC[C@H](C)[C@@H]1NC(=O)[C@H](CC(C)C)NC(=O)C2(CCNCC2)NC(=O)[C@@H](NC(=O)[C@@H](CC(C)C)NC(=O)[C@H](CCC(=O)O)NC(=O)[C@@H]2C[C@@H](N)CN2C(=O)[C@H](Cc2c[nH]c3ccc(Cl)cc23)NC(=O)[C@H](Cc2c[nH]c3ccccc23)NC(=O)[C@H](CC(=O)O)NC(=O)CCC(=O)NCCCOCCOCCOCCCNC(=O)CN2CCN(CC(=O)O)CCN(CC(=O)O)CCN(CC(=O)O)CC2)CSCc2cccc(c2)CSCCNC1=O` [GIP-112, DOTA-Ttds-Asp-Trp-5Clw-Tap-Glu-leu-[Cys(2Lut)-Apc-Leu-Ile-AET]] ({X3-Suc}-DW[Trp(5-Cl)][Pro(4R-NH2)]E[dL]C[Api]LI; linker 7-C via X7), in assay [1], the IC50 is less than 10 nM. Also, in assay [2], the “t1/2 Category” value is “A (t1/2 values>15 min)” and the Kd was less than 1 nM.

Take `CC[C@H](C)[C@@H]1NC(=O)[C@H](CC(C)C)NC(=O)C2(CCNCC2)NC(=O)[C@@H](NC(=O)[C@@H](CC(C)C)NC(=O)[C@H](CCC(=O)O)NC(=O)[C@@H]2C[C@@H](N)CN2C(=O)[C@H](Cc2c[nH]c3ccc(Cl)cc23)NC(=O)[C@H](Cc2c[nH]c3ccccc23)NC(=O)[C@H](CC(=O)O)NC(=O)CCC(=O)NCCCOCCOCCOCCCNC(=O)CN2CCN(CC(=O)O)CCN(CC(=O)O)CCN(CC(=O)O)CC2)CNCc2cccc(n2)CSCCNC1=O` [GIP-113, DOTA-Ttds-Asp-Trp-5Clw-Tap-Glu-leu-[Dap(2Lut)-Apc-Leu-Ile-AET]]: in assay [1], the IC50 is less than 10 nM. In assay [2], the “t1/2 Category” value is reported as “A (t1/2 values>15 min)” and the Kd was less than 1 nM.

As to `CC[C@H](C)[C@@H]1NC(=O)[C@H](CC(C)C)NC(=O)C2(CCOCC2)NC(=O)[C@@H](NC(=O)[C@@H](CC(C)C)NC(=O)[C@H](CCC(=O)O)NC(=O)[C@@H]2C[C@@H](O)CN2C(=O)[C@H](Cc2c[nH]c3ccc(Cl)cc23)NC(=O)[C@H](Cc2c[nH]c3ccccc23)NC(=O)CCC(=O)O)CSCc2cccc(n2)CSC[C@@H](C(=O)NCCCCCNC(=O)CN2CCN(CC(=O)O)CCN(CC(=O)O)CCN(CC(=O)O)CC2)NC1=O` [GIP-117, HO-Succinyl-Trp-5Clw-Hyp-Glu-leu-[Cys(2Lut)-Thp-Leu-Ile-Cys]-Ape-DOTA] (Suc-W[Trp(5-Cl)][Hyp]E[dL]C[Thp]LIC-{NH(CH2)5NHDOTA}; linker 6-10 via Pyridine(2,6-diCH2)), the IC50 in assay [1] was less than 10 nM. Further, in assay [2], the “t1/2 Category” value was “A (t1/2 values>15 min)” and the Kd was less than 1 nM.

For `CC[C@H](C)[C@@H]1NC(=O)[C@H](CC(C)C)NC(=O)C2(CCOCC2)NC(=O)[C@@H](NC(=O)[C@@H](CC(C)C)NC(=O)[C@H](CCC(=O)O)NC(=O)[C@@H]2C[C@@H](O)CN2C(=O)[C@H](Cc2c[nH]c3ccc(Cl)cc23)NC(=O)[C@H](Cc2c[nH]c3ccccc23)NC(=O)CCC(=O)O)CSCc2cccc(n2)CSC[C@@H](C(=O)N2CCN(C(=O)CN3CCN(CC(=O)O)CCN(CC(=O)O)CCN(CC(=O)O)CC3)CC2)NC1=O` [GIP-118, HO-Succinyl-Trp-5Clw-Hyp-Glu-leu-[Cys(2Lut)-Thp-Leu-Ile-Cys]-PP-DOTA] (Suc-W[Trp(5-Cl)][Hyp]E[dL]C[Thp]LIC-X8; linker 6-10 via Pyridine(2,6-diCH2)), the IC50 in assay [1] is less than 10 nM. Also, in assay [2], the “t1/2 Category” value is “A (t1/2 values>15 min)” and the Kd is less than 1 nM.

`CC[C@H](C)[C@@H]1NC(=O)[C@H](CC(C)C)NC(=O)C2(CCNCC2)NC(=O)[C@@H](NC(=O)[C@@H](CC(C)C)NC(=O)[C@H](CCC(=O)O)NC(=O)[C@@H]2CCCN2C(=O)[C@H](Cc2c[nH]c3ccc(Cl)cc23)NC(=O)[C@H](Cc2c[nH]c3ccccc23)NC(=O)[C@H](CC(=O)O)NC(=O)CCC(=O)NCCCOCCOCCOCCCNC(=O)CN2CCN(CC(=O)O)CCN(CC(=O)O)CCN(CC(=O)O)CC2)CSCc2cccc(n2)CSCCNC1=O` [GIP-119, DOTA-Ttds-Asp-Trp-5Clw-Pro-Glu-leu-[Cys(2Lut)-Apc-Leu-Ile-AET]] ({X3-Suc}-DW[Trp(5-Cl)]PE[dL]C[Api]LI; linker 7-C via X6): the IC50 in assay [1] was less than 10 nM. Moreover, in assay [2], the “t1/2 Category” value is given as “A (t1/2 values>15 min)” and the Kd was less than 1 nM.
